The text below walks through data of paper PMC10325911 (2023).

Assay [1] deals with Bom17 (DNA, G4) GGTTAGGTTAGGTTAGG
Put plainly: CD melting. The conditions noted are these: K+ 5 mM; Tris 10 mM pH 7.2, DBI 10 μM, oligonucleotide 2 μM, DMSO 2%.

In assay [2] the test system is ds-DNA HIF-1α (DNA, duplex) GCGCGGGGAGGGGAGAGGGGGCGGGAGCGCG/CGCGCTCCCGCCCCCTCTCCCCTCCCCGCGC
Kind of assay: CD melting. As to conditions: K+ 5 mM; Tris 10 mM pH 7.2, DBI 10 μM, oligonucleotide 2 μM, DMSO 2%.

In assay [3] the test system is 4G3U3 (RNA, G4) GGGUUUGGGUUUGGGUUUGGG
Put plainly: CD melting. As to conditions: K+ 5 mM; Tris 10 mM pH 7.2, DBI 10 μM, oligonucleotide 2 μM, DMSO 2%.

Assay [4] deals with HIF-1α (DNA, G4) GCGCGGGGAGGGGAGAGGGGGCGGGAGCGCG
Kind of assay: fluorescence polarization titration. As to conditions: K+ 100 mM; Tris 50 mM pH 7.2, DBI 1 μM, DMSO 1%, DNA 0-10 μM. For orientation: Polarisation of emitted light reports the rotation of a fluorescent probe.

Assay [5] concerns sc ds-DNA (DNA, duplex) CAATCGGATCGAATTCGATCCGATTG
Put plainly: fluorescence polarization titration. As to conditions: K+ 100 mM; Tris 50 mM pH 7.2, DBI 1 μM, DMSO 1%, DNA up to 10 μM.

For assay [6], the system named is TERRA (RNA, G4) UUAGGGUUAGGGUUAGGGUUAGGG
Put plainly: fluorescence polarization titration. As to conditions: no or very weak binding response, group statement for all four RNAs.

Assay [7] deals with C-rich HIF-1α (DNA, single strand) CGCGCTCCCGCCCCCTCTCCCCTCCCCGCGC
Put plainly: fluorescence polarization titration. As to conditions: K+ 100 mM; Tris 50 mM pH 7.2, DBI 1 μM, DMSO 1%, DNA up to 10 μM.

The subject of assay [8] is c-MYC Pu24T (DNA, G4) TGAGGGTGGTGAGGGTGGGGAAGG
Kind of assay: CD melting. The conditions noted are these: K+ 5 mM; Tris 10 mM pH 7.2, DBI 10 μM, oligonucleotide 2 μM, DMSO 2%.

The test system of assay [9] is sc ds-RNA (RNA, duplex) CAAUCGGAUCGAAUUCGAUCCGAUUG
Put plainly: fluorescence polarization titration. The conditions noted are these: no or very weak binding response, group statement for all four RNAs.

For assay [10], the system named is FMR1 (RNA, G4) GGAGGGGGAGGAAGAGGACAAGGAGGAAGAGG
Kind of assay: fluorescence polarization titration. The conditions noted are these: no or very weak binding response, group statement for all four RNAs.

The test system of assay [11] is mut HIF-1α (DNA, single strand) GCGCGGCGAGCGGAGAGGGCGCGCGAGCGCG
Put plainly: fluorescence polarization titration. The conditions noted are these: K+ 100 mM; Tris 50 mM pH 7.2, DBI 1 μM, DMSO 1%, DNA up to 10 μM.

Assay [12] concerns sc ds-DNA (DNA, duplex) CAATCGGATCGAATTCGATCCGATTG
Put plainly: CD melting. As to conditions: K+ 5 mM; Tris 10 mM pH 7.2, DBI 10 μM, oligonucleotide 2 μM, DMSO 2%.

The test system of assay [13] is c-MYC Pu22 (DNA, G4) TGAGGGTGGGTAGGGTGGGTAA
Put plainly: fluorescence polarization titration. As to conditions: K+ 100 mM; Tris 50 mM pH 7.2, DBI 1 μM, DMSO 1%, DNA 0-10 μM.

The subject of assay [14] is 4G3U3 (RNA, G4) GGGUUUGGGUUUGGGUUUGGG
Kind of assay: fluorescence polarization titration. As to conditions: no or very weak binding response, group statement for all four RNAs.

In assay [15] the test system is Tel-22 (DNA, G4) AGGGTTAGGGTTAGGGTTAGGG
Kind of assay: CD melting. As to conditions: K+ 5 mM; Tris 10 mM pH 7.2, DBI 10 μM, oligonucleotide 2 μM, DMSO 2%.

Assay [16] deals with c-MYC Pu22 (DNA, G4) TGAGGGTGGGTAGGGTGGGTAA
Put plainly: CD melting. The conditions noted are these: K+ 5 mM; Tris 10 mM pH 7.2, DBI 10 μM, oligonucleotide 2 μM, DMSO 2%.

What is called ΔTm is the change in melting temperature against a reference sample.

As to `CCC(CC)n1c(=O)c2ccc3sc4ccc5ccccc5c4c4ccc(c1=O)c2c34`, the ΔTm in [1] is -0.1 °C; in [2], 2 °C; in assay [3], 0.6 °C; in assay [8] it was 3.3 °C; in [12], -1.5 °C; in assay [15] it was -1.3 °C. Further, the ΔTm in [16] was found to be 7.3 °C. The Ka is 4.6 × 10^5 ± 0.5 M^−1 in assay [4] and 4.5 × 10^5 ± 1.1 M^−1 in [13]. Moreover, the binding result in assay [5] is on record as “no”; in assay [6], “weak”; in assay [7] it was “no”; in assay [9], “weak”; in [10], “weak”; in assay [11], “no”. Besides, the binding entry in assay [14] is “weak”.
